The target of experiment [1] is EZH1 pentameric complex (EZH1:EED:SUZ12:RBBP4:AEBP2) (Homo sapiens, UniProt Q92800). As to the kind of experiment: Methyltransferase activity assay. It is filed as biochemical. The following applies: for fold loss of potency for EZH1: relative to the parent compound 5.
The target in experiment [2] is EZH2 trimeric complex (EZH2:EED:SUZ12) (Homo sapiens, UniProt Q15910). Nature of the experiment: Methyltransferase activity assay. It is filed as biochemical. The following applies: for fold loss of potency for EZH2: relative to the parent compound of the sentence (5, 24 or 53).

Where only a bound is given, the exact number is not on record here.

EZH1 pentameric complex (EZH1:EED:SUZ12:RBBP4:AEBP2), sequence (Q92800 whole entry): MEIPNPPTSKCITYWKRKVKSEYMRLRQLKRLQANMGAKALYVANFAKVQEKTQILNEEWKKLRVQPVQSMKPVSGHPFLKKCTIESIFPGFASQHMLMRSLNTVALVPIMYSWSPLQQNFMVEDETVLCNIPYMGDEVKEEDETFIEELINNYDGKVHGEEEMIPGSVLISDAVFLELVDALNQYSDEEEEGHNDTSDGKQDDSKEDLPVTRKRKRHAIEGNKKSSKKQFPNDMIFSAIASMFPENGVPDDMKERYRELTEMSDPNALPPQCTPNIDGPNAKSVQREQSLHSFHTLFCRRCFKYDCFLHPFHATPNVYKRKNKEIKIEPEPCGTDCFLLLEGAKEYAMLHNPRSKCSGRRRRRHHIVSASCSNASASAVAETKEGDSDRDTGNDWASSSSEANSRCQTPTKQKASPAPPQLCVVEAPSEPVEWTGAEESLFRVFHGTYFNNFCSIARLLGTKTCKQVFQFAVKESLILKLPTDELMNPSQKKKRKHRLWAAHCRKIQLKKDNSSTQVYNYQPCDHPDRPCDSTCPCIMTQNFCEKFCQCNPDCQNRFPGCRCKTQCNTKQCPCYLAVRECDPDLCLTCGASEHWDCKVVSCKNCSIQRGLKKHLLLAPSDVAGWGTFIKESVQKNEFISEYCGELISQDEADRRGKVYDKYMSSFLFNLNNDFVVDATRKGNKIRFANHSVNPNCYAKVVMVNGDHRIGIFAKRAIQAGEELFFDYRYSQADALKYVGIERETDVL
EZH1 pentameric complex (EZH1:EED:SUZ12:RBBP4:AEBP2), sequence (O75530 whole entry partner): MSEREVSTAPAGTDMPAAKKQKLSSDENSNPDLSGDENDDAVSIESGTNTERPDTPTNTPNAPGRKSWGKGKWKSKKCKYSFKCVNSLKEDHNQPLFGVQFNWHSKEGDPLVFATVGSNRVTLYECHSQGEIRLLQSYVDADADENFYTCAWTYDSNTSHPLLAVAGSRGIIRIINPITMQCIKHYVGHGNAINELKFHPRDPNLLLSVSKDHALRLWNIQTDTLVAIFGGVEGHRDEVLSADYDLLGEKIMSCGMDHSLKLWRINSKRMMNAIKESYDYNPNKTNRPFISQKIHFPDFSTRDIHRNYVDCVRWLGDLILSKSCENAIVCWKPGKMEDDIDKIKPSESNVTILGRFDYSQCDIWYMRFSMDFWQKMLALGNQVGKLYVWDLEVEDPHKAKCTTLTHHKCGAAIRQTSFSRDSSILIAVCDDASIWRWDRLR
EZH1 pentameric complex (EZH1:EED:SUZ12:RBBP4:AEBP2), sequence (Q15022 whole entry partner): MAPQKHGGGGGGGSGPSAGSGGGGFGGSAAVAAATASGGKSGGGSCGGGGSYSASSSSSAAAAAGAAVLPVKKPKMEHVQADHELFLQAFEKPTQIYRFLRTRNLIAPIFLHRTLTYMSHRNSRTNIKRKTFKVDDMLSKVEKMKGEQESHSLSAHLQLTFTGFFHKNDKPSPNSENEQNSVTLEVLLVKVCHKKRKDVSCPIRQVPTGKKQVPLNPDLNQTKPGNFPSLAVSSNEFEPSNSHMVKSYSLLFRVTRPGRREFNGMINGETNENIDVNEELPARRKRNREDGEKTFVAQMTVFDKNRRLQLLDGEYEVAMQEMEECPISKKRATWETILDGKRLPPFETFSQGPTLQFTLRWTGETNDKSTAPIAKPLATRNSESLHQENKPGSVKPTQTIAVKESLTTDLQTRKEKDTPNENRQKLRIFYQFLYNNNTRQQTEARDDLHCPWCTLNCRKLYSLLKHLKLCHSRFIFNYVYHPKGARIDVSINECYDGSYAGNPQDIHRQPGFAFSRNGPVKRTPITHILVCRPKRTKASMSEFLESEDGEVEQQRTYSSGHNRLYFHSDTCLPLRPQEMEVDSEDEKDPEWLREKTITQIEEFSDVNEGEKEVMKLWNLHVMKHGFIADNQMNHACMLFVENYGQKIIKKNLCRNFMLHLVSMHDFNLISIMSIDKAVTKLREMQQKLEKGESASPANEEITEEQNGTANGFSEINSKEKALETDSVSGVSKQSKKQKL
EZH1 pentameric complex (EZH1:EED:SUZ12:RBBP4:AEBP2), sequence (Q09028 whole entry partner): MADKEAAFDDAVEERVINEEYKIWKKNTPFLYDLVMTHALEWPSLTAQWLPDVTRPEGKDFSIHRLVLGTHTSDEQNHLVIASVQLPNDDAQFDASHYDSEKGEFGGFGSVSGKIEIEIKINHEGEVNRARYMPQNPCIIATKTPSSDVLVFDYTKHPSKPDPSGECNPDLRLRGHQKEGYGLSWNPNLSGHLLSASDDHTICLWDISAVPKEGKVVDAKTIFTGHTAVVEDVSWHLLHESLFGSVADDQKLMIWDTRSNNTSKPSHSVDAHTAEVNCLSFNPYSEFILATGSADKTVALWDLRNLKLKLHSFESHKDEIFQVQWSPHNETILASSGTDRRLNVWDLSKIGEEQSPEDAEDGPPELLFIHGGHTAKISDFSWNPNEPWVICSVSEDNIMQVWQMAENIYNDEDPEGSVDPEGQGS
EZH1 pentameric complex (EZH1:EED:SUZ12:RBBP4:AEBP2), sequence (Q6ZN18 whole entry partner): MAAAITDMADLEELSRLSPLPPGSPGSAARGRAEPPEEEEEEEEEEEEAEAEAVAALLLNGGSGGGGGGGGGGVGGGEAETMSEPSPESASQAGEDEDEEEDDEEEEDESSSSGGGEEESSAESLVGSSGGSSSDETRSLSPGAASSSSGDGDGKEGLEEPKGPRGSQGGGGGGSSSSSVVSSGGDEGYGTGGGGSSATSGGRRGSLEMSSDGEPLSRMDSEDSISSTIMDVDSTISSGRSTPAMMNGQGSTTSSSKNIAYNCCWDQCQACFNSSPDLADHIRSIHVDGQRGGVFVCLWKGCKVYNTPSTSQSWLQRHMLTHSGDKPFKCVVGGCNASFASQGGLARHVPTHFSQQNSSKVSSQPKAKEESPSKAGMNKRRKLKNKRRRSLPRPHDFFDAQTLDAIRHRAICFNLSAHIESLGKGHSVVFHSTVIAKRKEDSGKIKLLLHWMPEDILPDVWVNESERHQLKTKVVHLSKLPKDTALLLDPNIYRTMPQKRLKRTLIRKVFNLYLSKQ
EZH2 trimeric complex (EZH2:EED:SUZ12), sequence (Q15910 whole entry): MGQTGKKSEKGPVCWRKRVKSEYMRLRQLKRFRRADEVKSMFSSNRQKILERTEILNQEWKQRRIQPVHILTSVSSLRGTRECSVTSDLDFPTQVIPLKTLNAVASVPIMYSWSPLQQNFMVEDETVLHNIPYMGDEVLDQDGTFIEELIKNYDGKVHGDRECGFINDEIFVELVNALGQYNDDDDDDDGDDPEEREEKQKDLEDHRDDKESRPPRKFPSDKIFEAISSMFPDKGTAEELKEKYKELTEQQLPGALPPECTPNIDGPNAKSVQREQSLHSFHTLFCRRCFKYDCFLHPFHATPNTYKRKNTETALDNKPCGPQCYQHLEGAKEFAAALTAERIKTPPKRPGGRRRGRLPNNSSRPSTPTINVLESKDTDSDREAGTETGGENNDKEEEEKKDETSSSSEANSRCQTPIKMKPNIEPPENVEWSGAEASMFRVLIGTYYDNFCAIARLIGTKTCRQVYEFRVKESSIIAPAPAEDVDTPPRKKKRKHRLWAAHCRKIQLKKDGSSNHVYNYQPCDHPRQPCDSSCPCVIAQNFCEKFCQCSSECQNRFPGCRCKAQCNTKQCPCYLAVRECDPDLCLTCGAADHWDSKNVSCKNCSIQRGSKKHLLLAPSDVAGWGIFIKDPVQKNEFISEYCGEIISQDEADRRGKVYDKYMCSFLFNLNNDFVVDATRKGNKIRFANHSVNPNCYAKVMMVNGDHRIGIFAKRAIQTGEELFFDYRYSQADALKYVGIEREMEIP
EZH2 trimeric complex (EZH2:EED:SUZ12), sequence (O75530 whole entry partner): as the sequence (O75530 whole entry partner) above
EZH2 trimeric complex (EZH2:EED:SUZ12), sequence (Q15022 whole entry partner): as the sequence (Q15022 whole entry partner) above

Turning to `CCc1cc(C)[nH]c(=O)c1CNC(=O)c1cc(-c2ccc(N3CCN(C(C)C)CC3)nc2)cc2c1cnn2C(C)C` [Compound 25, N-((4-Ethyl-6-methyl-2-oxo-1,2-dihydropyridin-3-yl)methyl)-1-isopropyl-6-(6-(4-isopropylpiperazin-1-yl)pyridin-3-yl)-1H-indazole-4-carboxamide], in experiment [1] (relative to compound 24), the “fold increase in EZH1 potency” value is listed as “more than 3 fold”.

For `CCc1cc(C)c(CNC(=O)c2cc(-c3ccc(N4CCN(C(C)C)CC4)nc3)cc3c2cnn3C(C)C)c(=O)[nH]1` [Compound 30, N-((6-Ethyl-4-methyl-2-oxo-1,2-dihydropyridin-3-yl)methyl)-1-isopropyl-6-(6-(4-isopropylpiperazin-1-yl)pyridin-3-yl)-1H-indazole-4-carboxamide], the “inhibitory activity against EZH1, in words” value in experiment [1] is “did not exhibit appreciable inhibitory activity”.

Consider `CCC(C)c1cc(C)c(CNC(=O)c2cc(-c3ccc(N4CCN(C(C)C)CC4)nc3)cc3c2cnn3C(C)C)c(=O)[nH]1` (centres unmarked) [Compound 31, N-((6-(sec-Butyl)-4-methyl-2-oxo-1,2-dihydropyridin-3-yl)-methyl)-1-isopropyl-6-(6-(4-isopropylpiperazin-1-yl)pyridin-3-yl)-1H-indazole-4-carboxamide], for which the “inhibitory activity against EZH1, in words” value in experiment [1] is on record as “did not exhibit appreciable inhibitory activity”.

On to `Cc1cc(C(C)(C)C)[nH]c(=O)c1CNC(=O)c1cc(-c2ccc(N3CCN(C(C)C)CC3)nc2)cc2c1cnn2C(C)C` [Compound 32, N-((6-(tert-Butyl)-4-methyl-2-oxo-1,2-dihydropyridin-3-yl)-methyl)-1-isopropyl-6-(6-(4-isopropylpiperazin-1-yl)pyridin-3-yl)-1H-indazole-4-carboxamide], for which, in experiment [2], the “inhibitory activity against EZH2, in words” value is “complete loss of potency”. In addition, the “inhibitory activity against EZH1, in words” value in experiment [1] is “complete loss of potency”. For the molecule `Cc1cc(-c2ccccc2)[nH]c(=O)c1CNC(=O)c1cc(-c2ccc(N3CCN(C(C)C)CC3)nc2)cc2c1cnn2C(C)C` [Compound 33, 1-Isopropyl-6-(6-(4-isopropylpiperazin-1-yl)pyridin-3-yl)-N-((4-methyl-2-oxo-6-phenyl-1,2-dihydropyridin-3-yl)methyl)-1H-inda-zole-4-carboxamide], the “inhibitory activity against EZH2, in words” value in experiment [2] is “complete loss of potency”. The “inhibitory activity against EZH1, in words” value in experiment [1] was “complete loss of potency”. Regarding `CC(C)N1CCN(c2ccc(-c3cc(C(=O)NCc4ccc[nH]c4=O)c4cnn(C(C)C)c4c3)cn2)CC1` [Compound 34, 1-Isopropyl-6-(6-(4-isopropylpiperazin-1-yl)pyridin-3-yl)-N-((2-oxo-1,2-dihydropyridin-3-yl)methyl)-1H-indazole-4-carboxamide], in experiment [2], the “fold loss of potency for EZH2” value is recorded as > 500 fold. Take `Cc1cc(O)c(CNC(=O)c2cc(-c3ccc(N4CCN(C(C)C)CC4)nc3)cc3c2cnn3C(C)C)c(=O)[nH]1` [Compound 39, N-((4-Hydroxy-6-methyl-2-oxo-1,2-dihydropyridin-3-yl)methyl)-1-isopropyl-6-(6-(4-isopropylpiperazin-1-yl)pyridin-3-yl)-1H-inda-zole-4-carboxamide]: in experiment [2], the “inhibitory activity against EZH2, in words” value is listed as “total loss of potency”. The “inhibitory activity against EZH1, in words” value in experiment [1] is “total loss of potency”.

In the case of `Cc1ncc(CNC(=O)c2cc(-c3ccc(N4CCN(C(C)C)CC4)nc3)cc3c2cnn3C(C)C)c(=O)[nH]1` [Compound 40, 1-Isopropyl-6-(6-(4-isopropylpiperazin-1-yl)pyridin-3-yl)-N-((2-methyl-6-oxo-1,6-dihydropyrimidin-5-yl)methyl)-1H-indazole-4-carboxamide], the “inhibitory activity against EZH2, in words” value in experiment [2] is “completely abrogated inhibitory activity”. For the same molecule, the “inhibitory activity against EZH1, in words” value in experiment [1] was “completely abrogated inhibitory activity”. In the case of `CC(C)N1CCN(c2ccc(-c3cc(C(=O)NCc4cnc[nH]c4=O)c4cnn(C(C)C)c4c3)cn2)CC1` [Compound 41, 1-Isopropyl-6-(6-(4-isopropylpiperazin-1-yl)pyridin-3-yl)-N-((6-oxo-1,6-dihydropyrimidin-5-yl)methyl)-1H-indazole-4-carboxamide], in experiment [2], the “inhibitory activity against EZH2, in words” value is on record as “completely abrogated inhibitory activity”. Besides, the “inhibitory activity against EZH1, in words” value in experiment [1] is “completely abrogated inhibitory activity”. As for `Cc1[nH]c(=O)[nH]c(=O)c1CNC(=O)c1cc(-c2ccc(N3CCN(C(C)C)CC3)nc2)cc2c1cnn2C(C)C` [Compound 42, 1-Isopropyl-6-(6-(4-isopropylpiperazin-1-yl)pyridin-3-yl)-N-((6-methyl-2,4-dioxo-1,2,3,4-tetrahydropyrimidin-5-yl)methyl)-1H-in-dazole-4-carboxamide], the “inhibitory activity against EZH2, in words” value in experiment [2] is on record as “completely abrogated inhibitory activity”. In addition, the “inhibitory activity against EZH1, in words” value in experiment [1] was “completely abrogated inhibitory activity”. Take `CC(C)N1CCN(c2ccc(-c3cc(C(=O)NC4CC(C)(C)NC(C)(C)C4)c4cnn(C(C)C)c4c3)cn2)CC1` [Compound 43, 1-Isopropyl-6-(6-(4-isopropylpiperazin-1-yl)pyridin-3-yl)-N-(2,2,6,6-tetramethylpiperidin-4-yl)-1H-indazole-4-carboxamide]: the “inhibitory activity against EZH2, in words” value in experiment [2] is on record as “complete loss of potency”. Moreover, the “inhibitory activity against EZH1, in words” value in experiment [1] was “complete loss of potency”. For `CCCc1cc(C)[nH]c(=O)c1CNC(=O)c1cc(-c2ccc(N3CCN(C(C)C)CC3)nc2)cc2nn(C(C)C)cc12` [Compound 44, 2-Isopropyl-6-(6-(4-isopropylpiperazin-1-yl)pyridin-3-yl)-N-((6-methyl-2-oxo-4-propyl-1,2-dihydropyridin-3-yl)methyl)-2H-inda-zole-4-carboxamide], the “fold loss of potency for EZH2” value in experiment [2] was “more than 30 fold”. In addition, the “fold loss of potency for EZH1” value in experiment [1] is “more than 30 fold”. For the molecule `CCCc1cc(C)[nH]c(=O)c1CNC(=O)c1nn(C(C)C)c2cc(-c3ccc(N4CCN(C(C)C)CC4)nc3)ccc12` [Compound 45, 1-Isopropyl-6-(6-(4-isopropylpiperazin-1-yl)pyridin-3-yl)-N-((6-methyl-2-oxo-4-propyl-1,2-dihydropyridin-3-yl)methyl)-1H-inda-zole-3-carboxamide], the “inhibitory activity against EZH2, in words” value in experiment [2] is on record as “obliterated the inhibitory activity”. The “inhibitory activity against EZH1, in words” value in experiment [1] is on record as “obliterated the inhibitory activity”. For the molecule `CCCc1cc(C)[nH]c(=O)c1CNC(=O)c1cc(-c2ccc(N3CCN(C(C)C)CC3)nc2)c2cnn(C(C)C)c2c1` [Compound 47, 1-Isopropyl-4-(6-(4-isopropylpiperazin-1-yl)pyridin-3-yl)-N-((6-methyl-2-oxo-4-propyl-1,2-dihydropyridin-3-yl)methyl)-1H-inda-zole-6-carboxamide], in experiment [1], the “inhibitory activity against EZH1, in words” value is reported as “abolished all EZH1 inhibition”. In the case of `CCCc1cc(C)[nH]c(=O)c1CNC(=O)c1cc(-c2ccc(N3CCN(C(C)C)CC3)nc2)cc2c1cnn2CC1CCCC1` [Compound 58, 1-(Cyclopentylmethyl)-6-(6-(4-isopropylpiperazin-1-yl)pyridin-3-yl)-N-((6-methyl-2-oxo-4-propyl-1,2-dihydropyridin-3-yl)methyl)-1H-indazole-4-carboxamide], the “fold loss of potency for EZH2” value in experiment [2] was > 15 fold. For `CCCc1cc(C)[nH]c(=O)c1CNC(=O)c1cc(-c2ccc(N3CCN(C(C)C)CC3)nc2)cc2c1cnn2CC1CCCCC1` [Compound 59, 1-(Cyclohexylmethyl)-6-(6-(4-isopropylpiperazin-1-yl)pyridin-3-yl)-N-((6-methyl-2-oxo-4-propyl-1,2-dihydropyridin-3-yl)methyl)-1H-indazole-4-carboxamide], the “inhibitory activity against EZH2, in words” value in experiment [2] is recorded as “significant drop in potency”. Turning to `CCCc1cc(C)[nH]c(=O)c1CNC(=O)c1cc(-c2ccc(N3CCN(C(C)C)CC3)nc2)cc2c1cnn2CCC1CCCCC1` [Compound 62, 1-(2-Cyclohexylethyl)-6-(6-(4-isopropylpiperazin-1-yl)pyridin-3-yl)-N-((6-methyl-2-oxo-4-propyl-1,2-dihydropyridin-3-yl)methyl)-1H-indazole-4-carboxamide], the “inhibitory activity against EZH2, in words” value in experiment [2] is on record as “significant drop in potency”. With `CCCc1cc(C)[nH]c(=O)c1CNC(=O)c1cc(-c2ccccc2)cc2c1cnn2C(C)C` [Compound 66, 1-Isopropyl-N-((6-methyl-2-oxo-4-propyl-1,2-dihydropyridin-3-yl)methyl)-6-phenyl-1H-indazole-4-carboxamide], the “inhibitory activity against EZH2, in words” value in experiment [2] is “relatively good potency”. In the case of `CCCc1cc(C)[nH]c(=O)c1CNC(=O)c1cc(-c2ccc(F)cc2)cc2c1cnn2C(C)C` [Compound 67], the “inhibitory activity against EZH2, in words” value in experiment [2] is on record as “relatively good potency”. With `CCCc1cc(C)[nH]c(=O)c1CNC(=O)c1cc(-c2ccc(C(F)(F)F)cc2)cc2c1cnn2C(C)C` [Compound 68, 1-Isopropyl-N-((6-methyl-2-oxo-4-propyl-1,2-dihydropyridin-3-yl)methyl)-6-(4-(trifluoromethyl)phenyl)-1H-indazole-4-carboxa-mide], the “inhibitory activity against EZH2, in words” value in experiment [2] is “relatively good potency”. Regarding `CCCc1cc(C)[nH]c(=O)c1CNC(=O)c1cc(C2CCNCC2)cc2c1cnn2C(C)C` [Compound 72, 1-Isopropyl-N-((6-methyl-2-oxo-4-propyl-1,2-dihydropyridin-3-yl)methyl)-6-(piperidin-4-yl)-1H-indazole-4-carboxamide], the “fold loss of potency for EZH1” value in experiment [1] is “more than 10 fold”. `CCCc1cc(C)[nH]c(=O)c1CNC(=O)c1cc(N2CCNCC2)cc2c1cnn2C(C)C` [Compound 73, 1-Isopropyl-N-((6-methyl-2-oxo-4-propyl-1,2-dihydropyridin-3-yl)methyl)-6-(piperazin-1-yl)-1H-indazole-4-carboxamide]: the “fold loss of potency for EZH1” value in experiment [1] is recorded as “more than 10 fold”. In the case of `CCCc1cc(C)[nH]c(=O)c1CNC(=O)c1cc(Br)cc2c1cnn2C(C)C` [Compound 76, 6-Bromo-1-isopropyl-N-((6-methyl-2-oxo-4-propyl-1,2-dihydro-pyridin-3-yl)methyl)-1H-indazole-4-carboxamide], in experiment [2], the “fold loss of potency for EZH2” value is on record as 3–4 fold.

The values above are taken from PMC5003625 (Journal of medicinal chemistry, 2016).
